{"source": "patent US20160000762A1", "about": "“IMPROVING COGNITIVE FUNCTION” (THE REGENTS OF THE UNIVERSITY OF CALIFORNIA, priority 2013, published 2016)", "key": {"Ras [1]": {"test_system": "Ras", "assay": "GST-Raf1-RBD pulldown of active Ras, primary cortical neurons", "type": "cell-based", "conditions": "5 μM", "method": "(§1) GST-pull-down assay. To measure levels of active Ras, brain lysate homogenized with Ral buffer (25 mM Tris-HCl, pH 7.4, 250 mM NaCl, 0.5% NP40, 1.25 mM MgCl2, and 5% glycerol) from APP transgenic, APP knockout, or wild-type mice was incubated with GST-Raf-RBD purified protein coupled with GLUTATHIONE SEPHAROSE™ (Amersham) overnight at 4° C. After 24 hours, pellets were washed with Ral buffer and western blotting was conducted with anti-Ras.\n(§2) We next investigated the molecular mechanism by which BTA-EG4 may alter dendritic spine formation. Ras, a small GTPase, is involved in dendritic spine formation and synaptic delivery of AMPA receptors (Zhu et al., 2002; Lee et al., 2011). Moreover, abnormal Ras signaling is associated with neurodegenerative disease, causing cognitive impairments and learning deficits (Stornetta and Zhu, 2011). Thus, we initially investigated the effect of BTA-EG4 on Ras signaling by treating primary hippocampal neurons with BTA-EG4 (5 μM) or control for 24 hrs. […] Further, levels of active Ras were elevated following BTA-EG4 treatment (5 μM) in primary cortical neurons (FIG. 7C) and following BTA-EG4 treatment (30 mg/kg) in wild-type mice (FIG. 7D). We also examined whether BTA-EG4 can alter the activity of downstream Ras signaling proteins, including p-ERK and p-CREB."}, "Ras [2]": {"test_system": "Ras", "assay": "GST-Raf1-RBD pulldown of active Ras, brain lysates of wild-type mice", "type": "in vivo", "conditions": "30 mg/kg daily for 2 weeks", "method": "as §1, §2"}, "[3]": {"assay": "Morris water maze, wild-type mice", "type": "in vivo, wild-type (B6) mice", "excerpt": "Morris water maze. To examine the effects of BTA-EG4 on cognitive performance, we injected wild-type (B6) mice with BTA-EG4 daily for one week, and then began behavior testing. We continued daily injections for another week, for a total treatment course of two weeks. The Morris water maze task included training mice to locate a submerged, hidden platform using extramaze visuospatial cues. This system consists of a large, white circular pool with a Plexiglas platform painted white and submerged below the surface of the water, made opaque by the addition of white non-toxic paint. During training, the platform was hidden 14 inches from the side wall in one quadrant of the maze. The animals were gently placed at random into one of the four quadrants, separated by 90°, and facing the wall. The time required (latency) to locate the hidden platform was recorded by a blinded observer and tracked using TOPSCAN, and was limited to 90 sec. Animals failing to find the platform within 90 sec were assisted to the platform. Animals were allowed to remain on the platform for 15 sec on the first trial and 10 sec on subsequent trials. 24 hrs after the final learning trial, a probe trial of 90 sec was given. We recorded the percentage of time spent in the quadrant where the platform was previously located. As a control experiment, we tested motor impairment or visual discriminative ability. The animals were required to locate a clearly visible black platform (placed in a different location), raised above the water surface, at least 12 hrs after the last trial."}, "[4]": {"assay": "Morris Water Maze, 3× Tg AD mice", "type": "in vivo", "conditions": "for escape latency during training trials: 30 mg/kg daily, 2 weeks", "method": "Morris Water Maze. To examine the effects of BTA-EG4 on learning and memory, we injected 2-3 month old, 6-10 month old, and 13-16 month old 3× Tg AD mice daily (i.p.) for 2 weeks before beginning behavioral testing as described previously (Minami et al., 2012). The control groupw as treated with vehicle solution (10% DMSO) while the experimental group was treated with BTA-EG4 (30 mg/kg) daily for 2 weeks. Animals were kept on a fixed 12 hour light-dark cycle, and behavioral experiments were conducted during the light portion of this cycle. Specifically, experiments began at 9:30 AM and concluded before 4:00 PM. Briefly, the amount of time required for animals to locate a Plexiglas platform submerged in opaque water was measured in a large circular pool. The animal was randomly placed into one of four quadrants separated by 90°, and the platform was hidden in one of these quadrants (14 in. from the wall). TOPSCAN software tracked the time required (latency, limited to 60 s) to locate the hidden platform, and animals failing to locate the platform within 60 s were gently guided to the platform. On the first trial, animals were allowed to remain on the platform for 15 s. All subsequent trials limited platform time to 10 s, and a probe trial (60 s) was administered 24 h after the final learning trial. Time spent in the quadrant where the platform was previously located and number of platform crossings were recorded during this probe trial. As a control, 12 h after the last trial, animals were required to locate a clearly visible black platform placed in a new location."}, "[5]": {"test_system": "RasGRF1, GluA1, GluA2, p-ERK, p-Elk", "assay": "Western blot of cortex and hippocampus, 3× Tg AD mice", "type": "in vivo", "method": "Western blot and analysis. 3× Tg AD mice were injected with 30 mg/kg BTA-EG4 or vehicle daily for 2 weeks. After 2 weeks, the cortex and hippocampus were dissected and homogenized with RIPA buffer. Brain lysates were reduced, boiled, and run on a polyacrylamide gel followed by transfer onto nitrocellulose membrane and incubation in the following primary antibodies: rabbit anti-RasGRF1 (Santa Cruz, C-20), rabbit anti-GluA1 (Millipore, ab1504),mouse anti-GluA2 (Neuromab), rabbit anti-p-ERK (Invitrogen, 36880), or p-Elk (Cell Signal, 9181). Primary antibodies were applied overnight, washed with TBS buffer (3 washes, 5 min each), and HRP conjugated secondary antibodies were applied for 1 h. After 1 h, membranes were washed with TBS buffer (3 washes, 5 min each) and proteins were visualized by affixing the blots to autoradiography film. The density of each band was then quantified using ImageJ software (National Institutes of Health, […].) as a percentage of control following normalization to β-actin."}, "[6]": {"conditions": "30 mg/kg i.p., probe trial day 5"}, "[7]": {"conditions": "hippocampus, 6-10 months, 30 mg/kg daily, 2 weeks"}}}
{"substance": "BTA-EG4", "values": [{"measurement": "levels of active Ras", "setting": "Ras [1]", "value": "elevated"}, {"measurement": "levels of active Ras", "setting": "Ras [2]", "value": "elevated"}, {"measurement": "escape latency during training", "setting": "[3]; 30 mg/kg i.p. daily", "value": "significantly reduced"}, {"measurement": "rate of platform crossing", "setting": "[3]; [6]", "value": "significantly higher rate"}, {"measurement": "time spent in the target quadrant", "setting": "[3]; [6]", "value": "spent more time"}, {"measurement": "path length to the escape platform", "setting": "[3]; 30 mg/kg i.p., training trials", "value": "no difference"}, {"measurement": "swim speed", "setting": "[3]; 30 mg/kg i.p., CTRL=117±3.1 mm/s, p<0.01", "value": "130±3.6", "unit": "mm/s"}, {"measurement": "swim speed", "setting": "[4]; 2-3 months", "value": "without differing"}, {"measurement": "escape latency during training trials", "setting": "[4]; 2-3 months", "value": "significantly faster"}, {"measurement": "percentage of time in the target quadrant", "setting": "[4]; 2-3 months, probe trials", "value": "greater percentage"}, {"measurement": "platform crossings", "setting": "[4]; 2-3 months, probe trials", "value": "more platform crossings"}, {"measurement": "escape latency during training trials", "setting": "[4]; 6-10 months", "value": "faster"}, {"measurement": "number of platform crossings", "setting": "[4]; 6-10 months, probe trials", "value": "without changes"}, {"measurement": "percentage of time spent in the target quadrant", "setting": "[4]; 6-10 months, probe trials", "value": "significantly improved"}, {"measurement": "measured Morris Water Maze parameters (escape latency, swim speed, target quadrant time, platform crossings)", "setting": "[4]; 13-16 months", "value": "none of the measured parameters were significantly altered"}, {"measurement": "levels of p-Elk", "setting": "[5]; 6-10 months", "value": "did not alter"}, {"measurement": "levels of p-Elk", "setting": "[5]; 13-16 months", "value": "did not alter"}, {"measurement": "levels of p-ERK and ERK", "setting": "[5]; cortex and hippocampus, 6-10 months, 30 mg/kg daily, 2 weeks", "value": "did not have altered levels"}, {"measurement": "levels of AMPA receptor subunits", "setting": "[5]; cortex and hippocampus, 13-16 months", "value": "no statistically significant change"}, {"measurement": "GluA2 levels", "setting": "[5]; cortex, 6-10 months, 30 mg/kg daily, 2 weeks", "value": "only a trend of an increase"}, {"measurement": "GluA1 levels", "setting": "[5]; [7]", "value": "without a significant change"}, {"measurement": "GluA2 levels", "setting": "[5]; [7]", "value": "increased"}]}
